EC50 and CC50 data for ten compounds are collected here from US12594276B2, “Inhibitors of human immunodeficiency virus replication” (ViiV Healthcare UK (No.5) Limited, priority 2024, dated 2026).

The test system of data set [1] is recombinant NL4-3 virus (nef section replaced with Renilla luciferase gene) in MT-2 cells. The experiment in a line: HIV cell culture assay (antiviral activity, luciferase readout). The conditions noted are these: Renilla, NL43, MT-2 cells infected for 4-5 days with recombinant NL4-3 Renilla luciferase virus. In kind it is cell-based. Summed up: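 MT-2 cells were infected for 4-5 days with reporter virus made by transfecting the recombinant NL4-3 proviral clone into 293T cells, in the presence of serial compound dilutions. Luciferase activity was read with a live-cell substrate. EC50 came from the exponential median effect equation, (Fa)=1/[1+(ED50/drug conc.)m].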

Data set [2] is described as follows: Compound cytotoxicity, XTT-based colorimetric assay. As to conditions: human. In kind it is cell-based. A digest of the protocol:
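Cells seeded as for the antiviral assay but left uninfected (MT2). Compound exposure continued to day 4. XTT reagent added and colour read. CC50 calculated.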
(Formazan colour is commonly taken as a measure of viable cells.)

Setting [3] is: uninfected MT2 cells, day 4, XTT, read-out: CC50.

Like-named read-outs stand apart in the source and are kept apart here.

As to `Cc1cc(C2CCC(F)(F)CC2)nc2nc([C@H](Cc3cc(F)cc(F)c3)NC(=O)Cn3nc(C(F)F)c4c3C(F)(F)[C@@H]3C[C@H]43)n(-c3ccc(Cl)c4c(NS(C)(=O)=O)nn(CC(=O)N(C)[C@@H]5CCOC5)c34)c(=O)c12` (atropisomer, axis not shown; (P)) [Example 405, N-[(1S)-1-[(3P)-3-[4-chloro-3-methanesulfonamido-1-({methyl[(3R)-oxolan-3-yl]carbamoyl}methyl)-1H-indazol-7-yl]-7-(4,4-difluorocyclohexyl)-5-methyl-4-oxo-3H,4H-pyrido[2,3-d]pyrimidin-2-yl]-2-(3,5-difluorophenyl)ethyl]-2-[(2S,4R)-9-(difluoromethyl)-5,5-difluoro-7,8-diazatricyclo[4.3.0.0^2,^4]nona-1(6),8-dien-7-yl]acetamide], in data set [1], the EC50 (as a rule, the concentration needed to bring the measured effect to its halfway point) stood at 0.034 nM. The CC50 – broadly, the concentration giving 50% cytotoxicity – at 4 days in data set [2] (setting [3]) was over 20 nM.
Take `Cc1cc(C2CCC(F)(F)CC2)nc2nc([C@H](Cc3cc(F)cc(F)c3)NC(=O)Cn3nc(C(F)F)c4c3C(F)(F)[C@@H]3C[C@H]43)n(-c3ccc(Cl)c4c(NS(C)(=O)=O)nn(CC(=O)N5C[C@H]6C[C@H]6C5)c34)c(=O)c12` (atropisomer, axis not shown; (P)) [Example 409, N-[(1S)-1-[(3P)-3-(1-{2-[(1R,5S)-3-azabicyclo[3.1.0]hexan-3-yl]-2-oxoethyl}-4-chloro-3-methanesulfonamido-1H-indazol-7-yl)-7-(4,4-difluorocyclohexyl)-5-methyl-4-oxo-3H,4H-pyrido[2,3-d]pyrimidin-2-yl]-2-(3,5-difluorophenyl)ethyl]-2-[(2S,4R)-9-(difluoromethyl)-5,5-difluoro-7,8-diazatricyclo[4.3.0.0^2,^4]nona-1(6),8-dien-7-yl]acetamide]: the half-maximal effective concentration (EC50) in data set [1] worked out at 0.014 nM. The CC50 at 4 days in data set [2] (setting [3]) is over 20 nM.
As to `COCCNc1cc(C2CCC(F)(F)CC2)nc2nc([C@H](Cc3cc(F)cc(F)c3)NC(=O)Cn3nc(C(F)F)c4c3C(F)(F)[C@@H]3C[C@H]43)n(-c3ccc(Cl)c4c(NS(C)(=O)=O)nn(CCN5CCC(F)(F)CC5)c34)c(=O)c12` (atropisomer, axis not shown; (P)) [Example 413, N-[(1S)-1-[(3P)-3-{4-chloro-1-[2-(4,4-difluoropiperidin-1-yl)ethyl]-3-methanesulfonamido-1H-indazol-7-yl}-7-(4,4-difluorocyclohexyl)-5-[(2-methoxyethyl)amino]-4-oxo-3H,4H-pyrido[2,3-d]pyrimidin-2-yl]-2-(3,5-difluorophenyl)ethyl]-2-[(2S,4R)-9-(difluoromethyl)-5,5-difluoro-7,8-diazatricyclo[4.3.0.0^2,^4]nona-1(6),8-dien-7-yl]acetamide], in data set [1], the EC50 amounted to 0.013 nM. The CC50 at 4 days in data set [2] (setting [3]) was over 20 nM.
Consider `COCCNc1cc(C2CCC(F)(F)CC2)nc2nc([C@H](Cc3cc(F)cc(F)c3)NC(=O)Cn3nc(C(F)F)c4c3C(F)(F)[C@@H]3C[C@H]43)n(-c3ccc(Cl)c4c(NS(C)(=O)=O)nn(CCN5C[C@H](F)C[C@H](F)C5)c34)c(=O)c12` (atropisomer, axis not shown; (P)) [Example 414, N-[(1S)-1-[(3P)-3-(4-chloro-1-{2-[(3R,5S)-3,5-difluoropiperidin-1-yl]ethyl}-3-methanesulfonamido-1H-indazol-7-yl)-7-(4,4-difluorocyclohexyl)-5-[(2-methoxyethyl)amino]-4-oxo-3H,4H-pyrido[2,3-d]pyrimidin-2-yl]-2-(3,5-difluorophenyl)ethyl]-2-[(2S,4R)-9-(difluoromethyl)-5,5-difluoro-7,8-diazatricyclo[4.3.0.0^2,^4]nona-1(6),8-dien-7-yl]acetamide], for which the EC50 in data set [1] was found to be 0.01 nM. Also, the CC50 at 4 days in data set [2] (setting [3]) was over 20 nM.
For `COCCNc1cc(C2CCC(F)(F)CC2)nc2nc([C@H](Cc3cc(F)cc(F)c3)NC(=O)Cn3nc(C(F)F)c4c3C(F)(F)[C@@H]3C[C@H]43)n(-c3ccc(Cl)c4c(NS(C)(=O)=O)nn(CCN5CCC(F)CC5)c34)c(=O)c12` (atropisomer, axis not shown; (P)) [Example 415, N-[(1S)-1-[(3P)-3-{4-chloro-1-[2-(4-fluoropiperidin-1-yl)ethyl]-3-methanesulfonamido-1H-indazol-7-yl}-7-(4,4-difluorocyclohexyl)-5-[(2-methoxyethyl)amino]-4-oxo-3H,4H-pyrido[2,3-d]pyrimidin-2-yl]-2-(3,5-difluorophenyl)ethyl]-2-[(2S,4R)-9-(difluoromethyl)-5,5-difluoro-7,8-diazatricyclo[4.3.0.0^2,^4]nona-1(6),8-dien-7-yl]acetamide], the EC50 in data set [1] came out at 0.013 nM. In addition, the CC50 at 4 days in data set [2] (setting [3]) was over 20 nM.
Take `COCCNc1cc(C2CCC(F)(F)CC2)nc2nc([C@H](Cc3cc(F)cc(F)c3)NC(=O)Cn3nc(C(F)F)c4c3C(F)(F)[C@@H]3C[C@H]43)n(-c3ccc(Cl)c4c(NS(C)(=O)=O)nn(CCN5CCCC(F)(F)C5)c34)c(=O)c12` (atropisomer, axis not shown; (P)) [Example 416, N-[(1S)-1-[(3P)-3-{4-chloro-1-[2-(3,3-difluoropiperidin-1-yl)ethyl]-3-methanesulfonamido-1H-indazol-7-yl}-7-(4,4-difluorocyclohexyl)-5-[(2-methoxyethyl)amino]-4-oxo-3H,4H-pyrido[2,3-d]pyrimidin-2-yl]-2-(3,5-difluorophenyl)ethyl]-2-[(2S,4R)-9-(difluoromethyl)-5,5-difluoro-7,8-diazatricyclo[4.3.0.0^2,^4]nona-1(6),8-dien-7-yl]acetamide]: the EC50 in data set [1] was found to be 0.012 nM. Besides, the CC50 at 4 days in data set [2] (setting [3]) is over 20 nM.
With `COCCNc1cc(C2CCC(F)(F)CC2)nc2nc([C@H](Cc3cc(F)cc(F)c3)NC(=O)Cn3nc(C(F)F)c4c3C(F)(F)[C@@H]3C[C@H]43)n(-c3ccc(Cl)c4c(NS(C)(=O)=O)nn(CCN5C[C@@H](F)[C@@H](F)C5)c34)c(=O)c12` (atropisomer, axis not shown; (P)) [Example 417, N-[(1S)-1-[(3P)-3-(4-chloro-1-{2-[(3R,4S)-3,4-difluoropyrrolidin-1-yl]ethyl}-3-methanesulfonamido-1H-indazol-7-yl)-7-(4,4-difluorocyclohexyl)-5-[(2-methoxyethyl)amino]-4-oxo-3H,4H-pyrido[2,3-d]pyrimidin-2-yl]-2-(3,5-difluorophenyl)ethyl]-2-[(2S,4R)-9-(difluoromethyl)-5,5-difluoro-7,8-diazatricyclo[4.3.0.0^2,^4]nona-1(6),8-dien-7-yl]acetamide], in data set [1], the EC50 stood at 0.007 nM. Further, the CC50 at 4 days in data set [2] (setting [3]) was over 20 nM.
With `COCCNc1cc(C2CCC(F)(F)CC2)nc2nc([C@H](Cc3cc(F)cc(F)c3)NC(=O)Cn3nc(C(F)F)c4c3C(F)(F)[C@@H]3C[C@H]43)n(-c3ccc(Cl)c4c(NS(C)(=O)=O)nn(CCN5C[C@@H](C)O[C@@H](C)C5)c34)c(=O)c12` (atropisomer, axis not shown; (P)) [Example 418, N-[(1S)-1-[(3P)-3-(4-chloro-1-{2-[(2R,6S)-2,6-dimethylmorpholin-4-yl]ethyl}-3-methanesulfonamido-1H-indazol-7-yl)-7-(4,4-difluorocyclohexyl)-5-[(2-methoxyethyl)amino]-4-oxo-3H,4H-pyrido[2,3-d]pyrimidin-2-yl]-2-(3,5-difluorophenyl)ethyl]-2-[(2S,4R)-9-(difluoromethyl)-5,5-difluoro-7,8-diazatricyclo[4.3.0.0^2,^4]nona-1(6),8-dien-7-yl]acetamide], in data set [1], the EC50 was found to be 0.019 nM. In addition, in data set [2] (setting [3]), the CC50 at 4 days is over 20 nM.
`COCCNc1cc(C2CCC(F)(F)CC2)nc2nc([C@H](Cc3cc(F)cc(F)c3)NC(=O)Cn3nc(C(F)F)c4c3C(F)(F)[C@@H]3C[C@H]43)n(-c3ccc(Cl)c4c(NS(C)(=O)=O)nn(CCN5C[C@H]6C[C@@H](C5)O6)c34)c(=O)c12` (atropisomer, axis not shown; (P)) [Example 419, N-[(1S)-1-[(3P)-3-(4-chloro-3-methanesulfonamido-1-{2-[(1R,5S)-6-oxa-3-azabicyclo[3.1.1]heptan-3-yl]ethyl}-1H-indazol-7-yl)-7-(4,4-difluorocyclohexyl)-5-[(2-methoxyethyl)amino]-4-oxo-3H,4H-pyrido[2,3-d]pyrimidin-2-yl]-2-(3,5-difluorophenyl)ethyl]-2-[(2S,4R)-9-(difluoromethyl)-5,5-difluoro-7,8-diazatricyclo[4.3.0.0^2,^4]nona-1(6),8-dien-7-yl]acetamide]: the EC50 in data set [1] worked out at 0.011 nM. Also, the CC50 at 4 days in data set [2] is over 20 nM.
With `COCCNc1cc(C2CCC(F)(F)CC2)nc2nc([C@H](Cc3cc(F)cc(F)c3)NC(=O)Cn3nc(C(F)F)c4c3C(F)(F)[C@@H]3C[C@H]43)n(-c3ccc(Cl)c4c(NS(C)(=O)=O)nn(CCN5C[C@H]6CC[C@@H](C5)O6)c34)c(=O)c12` (atropisomer, axis not shown; (P)) [Example 420, N-[(1S)-1-[(3P)-3-(4-chloro-3-methanesulfonamido-1-{2-[(1R,5S)-8-oxa-3-azabicyclo[3.2.1]octan-3-yl]ethyl}-1H-indazol-7-yl)-7-(4,4-difluorocyclohexyl)-5-[(2-methoxyethyl)amino]-4-oxo-3H,4H-pyrido[2,3-d]pyrimidin-2-yl]-2-(3,5-difluorophenyl)ethyl]-2-[(2S,4R)-9-(difluoromethyl)-5,5-difluoro-7,8-diazatricyclo[4.3.0.0^2,^4]nona-1(6),8-dien-7-yl]acetamide], in data set [1], the EC50 was 0.011 nM. Further, the CC50 at 4 days in data set [2] (setting [3]) was over 20 nM.
